Laboratory results published in patent publication US7326730B2, “Aminoadamantane derivatives as therapeutic agents” (Adamas Pharmaceuticals, Inc., priority 2000, dated 2008).
“Also recorded” adds a separate entry of the source.

How the values were obtained:
[1] = system: C57B1/6 mice; assay: Murine cerebral ischemia model (intraluminal suture, 2 hr MCA occlusion, TTC staining); type: in vivo; settings: loading dose 100 mg/kg i.p., maintenance 40 mg/kg i.p. every 12 hr, first dose 2 hr after MCA occlusion; TTC staining at 48 hr; P<0.03 from control, P<0.05 from memantine; hydrochloride
Protocol: The intraluminal suture technique was used to produce a 2 hr occlusion of the middle cerebral artery (MCA), following the same protocol for focal cerebral ischemia/reperfusion as published previously (Chen, et al., Neuroscience (1998) 86: 1121). However, here C57B1/6 mice were used instead of rats. […] To produce a neuroprotective concentration of compound 7, the loading dose was 100 mg/kg i.p. and the maintenance dose was 40 mg/kg i.p. every 12 hr. In each case, drug or vehicle control was initially administered 2 hr after MCA occlusion. […] The animals were sacrificed and analyzed with TTC staining 48 hr after MCA occlusion (Chen, et al., Neuroscience (1998) 86: 1121).

[2] = system: cerebrocortical neurons; assay: In vitro model of mild NMDA-induced damage leading to apoptosis of cerebrocortical neurons; type: cell-based
Protocol: Cerebrocortical cultures were exposed to 300 μM NMDA for 20 min with or without various concentrations of compound 7. The next day cultures were analyzed by neuronal apoptosis as described in Example 19.
Under these conditions (300 μM NMDA exposure for 20 min, followed by washout), neuronal apoptosis was monitored 24 hours later by propidium iodide uptake and morphology of fixed, permeabilized neurons, among other techniques (Bonfoco et al., Proc Natl Acad Sci USA (1995) 92: 7162). NMDA induced about 20% apoptosis of neurons, and that 25-100 μM compound 7 afforded protection from this damage (P<0.001, FIG. 5).

[3] = system: precontracted aortic vessel; assay: Relaxation of norepinephrine-precontracted, endothelium-denuded thoracic aorta rings; set-up: species or system rabbits; settings: for effect on precontracted blood vessel: compared to solvent (EtOH) alone
Protocol: New Zealand white female rabbits weighing 3-4 kilograms were anesthetized with sodium pentobarbital, 13 milligram per kilogram. Descending thoracic aorta were isolated, the vessels were cleaned of adherent tissue and the endothelium was removed by a gentle rubbing with a cotton-tipped applicator inserted into the lumen. The vessels were cut into 5 millimeter rings and mounted on stirrups connected to transducers by which changes in isometric tension were recorded (model TO3C, Grass Instruments, Quincy, Mass.). Vessel rings were suspended in 20 mL of oxygenated Krebs buffer at 37° C. and sustained contractions were induced with 1 μM norepinephrine. The vessels were then relaxed in a dose-dependent fashion (10^−9 through 10^−5 M compound 8). In some experiments vessels were pretreated with methylene blue or hemoglobin to block relaxations.
Relaxations were attenuated by methylene blue (c) and hemoglobin (d) indicating an NO-related effect. (b) is a control with solvent.

[4] = loading dose 20 mg/kg i.p., maintenance dose 1 mg/kg/12 hours; previously shown (Chen et al. 1998); cited from earlier work
[5] = rabbit aortic rings precontracted with 1 μM norepinephrine, 10^−9 through 10^−5 M tested

With `CC12CC3(C)CC(N)(C1)CC(O[N+](=O)[O-])(C2)C3.Cl` [compound 7, 1-amino-3,5-dimethyl-7-nitrateadamantane hydrochloride] the “cerebral damage after stroke (neuroprotection)” value [1] was “more neuroprotective than memantine; also recorded: effective in decreasing cerebral damage after stroke”, the “concentration affording protection from NMDA-induced neuronal apoptosis” value ([2]; 300 μM NMDA for 20 min, washout, apoptosis monitored 24 hours later by propidium iodide uptake and morphology, NMDA induced about 20% apoptosis, P<0.001) was 25 to 100 µM and the “inhibition of NMDA induced apoptosis in cerebrocortical neurons” value ([2]; 300 μM NMDA for 20 min with various concentrations of compound, dose-dependent, P<0.001, n=3 cultures) was “largely prevented”. For the same compound, the “effect on precontracted blood vessel at 10 microM” value ([3]; FIG. 8, 10 microM concentration) was “modest relaxation”.

In the case of `CC(=O)NC12CC3(C)CC(C)(C1)CC(O[N+](=O)[O-])(C3)C2` [compound 8, 1-acetamido-3,5-dimethyl-7-nitrateadamantane], the “concentration at which complete relaxation was achieved” value [3, 5] is reported as 10^−6 M, the “concentration at which relaxations were seen” value [3, 5] is reported as 10^−8 M and the “relaxations after pretreatment with hemoglobin” value ([3]; vessels pretreated with hemoglobin) is reported as “attenuated”. For the same compound, the “relaxations after pretreatment with methylene blue” value ([3]; vessels pretreated with methylene blue) was “attenuated”.

With `CC12CC3(C)CC(N)(C1)CC(O)(C2)C3.Cl` [compound 9, 1-amino-3,5-dimethyl-7-hydroxyadamantane hydrochloride] the “effect on precontracted blood vessel” value ([3]; FIG. 8, hydrochloride) was “either no effect or slight contractions of blood vessels; also recorded: either no effect or slight blood vessel contractions”.

In the case of `CC12CC3(C)CC(O)(C1)CC(N(Cc1ccccc1)Cc1ccccc1)(C2)C3` [compound 10, 1,1-dibenzylamino-3,5-dimethyl-7-hydroxy-adamantane], the “effect on precontracted blood vessel” value ([3]; FIG. 8) is reported as “either no effect or slight contractions of blood vessels; also recorded: either no effect or slight blood vessel contractions”.

In the case of `CC12CC3CC(C)(C1)CC(N)(C3)C2` [memantine], the “parenchymal levels in the brain” value [4] is given as 1 to 10 µM.
